# Results reported in ChEMBL document CHEMBL4350967, “The Trifluoromethyl Group as a Bioisosteric Replacement of the Aliphatic Nitro Group in CB1 Receptor Positive Allosteric Modulators” (J Med Chem, 2019).
# Key:
# Cannabinoid receptor 1 [1] = target: T1, Cannabinoid receptor 1 (Homo sapiens, UniProt P21554); assay: Agonist activity at human Gi/Go-coupled CB1 receptor expressed in CHOK1 cells assessed as inhibition of forskolin-stimulated cAMP production measured after 30 mins by Hit-hunter assay
# Cannabinoid receptor 1 [2] = target: T1, Cannabinoid receptor 1; assay: Agonist activity at human Gi/Go-coupled CB1 receptor expressed in CHOK1 cells assessed as inhibition of forskolin-stimulated cAMP production measured after 30 mins by Hit-hunter assay relative to CP55940; assay type: cell-based; settings: 0.5 h, read-out: Emax
# Cannabinoid receptor 1 [3] = target: T1, Cannabinoid receptor 1; assay: Positive allosteric modulation of human CB1 receptor expressed in CHOK1 cells assessed as increase in CP55940-induced beta-arrestin recruitment preincubated for 30 mins followed by CP55940 addition and measured after 90 to 180 mins by PathHunter assay; assay type: cell-based
# Cannabinoid receptor 1 [4] = target: T1, Cannabinoid receptor 1; assay: Agonist activity at human CB1 receptor expressed in CHOK1 cells assessed as induction of beta-arrestin recruitment measured after 30 mins by PathHunter assay; assay type: cell-based
# Cannabinoid receptor 1 [5] = target: T1, Cannabinoid receptor 1
# Cannabinoid receptor 1 [6] = target: T1, Cannabinoid receptor 1; assay: Positive allosteric modulation of human CB1 receptor expressed in CHOK1 cells assessed as increase in CP55940-induced beta-arrestin recruitment at 1 uM preincubated for 30 mins followed by CP55940 addition and measured after 90 to 180 mins by PathHunter assay relative to CP55940; assay type: cell-based
# [7] = Half life in rat liver microsomes at 3 uM in presence of NADPH by LC-MS/MS analysis; assay type: ADME, Microsome
# Cannabinoid receptor 1 [8] = target: T1, Cannabinoid receptor 1; assay: Positive allosteric modulation of human CB1 receptor expressed in CHOK1 cells assessed as increase in CP55940-induced beta-arrestin recruitment at 500 nM preincubated for 30 mins followed by CP55940 addition and measured after 90 to 180 mins by PathHunter assay relative to CP55940; assay type: cell-based
# Cannabinoid receptor 1 [9] = target: T1, Cannabinoid receptor 1; assay: Positive allosteric modulation of human CB1 receptor expressed in CHOK1 cells assessed as increase in CP55940-induced beta-arrestin recruitment preincubated for 30 mins followed by CP55940 addition and measured after 90 to 180 mins by PathHunter assay relative to CP55940; assay type: cell-based
# [10] = Half life in human liver microsomes at 3 uM in presence of NADPH by LC-MS/MS analysis; assay type: ADME, Microsome
# Cannabinoid receptor 1 [11] = target: T1, Cannabinoid receptor 1; assay: Positive allosteric modulation of human CB1 receptor expressed in CHOK1 cells assessed as increase in CP55940-induced beta-arrestin recruitment at 200 nM preincubated for 30 mins followed by CP55940 addition and measured after 90 to 180 mins by PathHunter assay relative to CP55940; assay type: cell-based
# Cannabinoid receptor 1 [12] = target: T1, Cannabinoid receptor 1; assay: Positive allosteric modulation of human CB1 receptor expressed in CHOK1 cells assessed as increase in CP55940-induced beta-arrestin recruitment at 1000 nM preincubated for 30 mins followed by CP55940 addition and measured after 90 to 180 mins by PathHunter assay relative to CP55940; assay type: cell-based
# T1 sequence (P21554 whole entry): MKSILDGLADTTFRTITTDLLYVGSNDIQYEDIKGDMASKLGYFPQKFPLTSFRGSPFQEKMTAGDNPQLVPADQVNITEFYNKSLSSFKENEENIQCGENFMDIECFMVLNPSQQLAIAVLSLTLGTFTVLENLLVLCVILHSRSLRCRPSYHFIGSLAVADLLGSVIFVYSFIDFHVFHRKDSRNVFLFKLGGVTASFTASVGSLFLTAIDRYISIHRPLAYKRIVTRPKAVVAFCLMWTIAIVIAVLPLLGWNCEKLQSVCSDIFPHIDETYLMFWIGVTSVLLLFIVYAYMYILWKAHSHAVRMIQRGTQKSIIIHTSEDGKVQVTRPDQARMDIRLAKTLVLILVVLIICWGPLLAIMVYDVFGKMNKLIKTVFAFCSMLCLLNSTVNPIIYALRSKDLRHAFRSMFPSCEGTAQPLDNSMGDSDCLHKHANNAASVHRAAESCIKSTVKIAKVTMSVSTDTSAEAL
Activity (Cannabinoid receptor 1 [6]) [%],SMILES,t1/2 [7] [min],t1/2 [10] [min],also measured
,N#Cc1ccc2c([C@H](CC(F)(F)F)c3cccs3)c(-c3ccccc3)[nH]c2c1,,,EC50 (Cannabinoid receptor 1 [1]): 0.076 µM; Emax (Cannabinoid receptor 1 [2]): 89%; EC50 (Cannabinoid receptor 1 [3]): 0.342 µM; EC50 (Cannabinoid receptor 1 [4]): 1.21 µM; EC50 (Cannabinoid receptor 1 [5]): 0.04 µM
,FC(F)(F)CC(c1cccs1)c1c(C2CCCC2)[nH]c2cc(C(F)(F)F)ccc12 (racemic),44.4,47.1,EC50 (Cannabinoid receptor 1 [3]): 0.301 µM; Activity (Cannabinoid receptor 1 [8]): > 50%; Emax (Cannabinoid receptor 1 [9]): 162%; EC50 (Cannabinoid receptor 1 [4]): 0.755 µM
,CC(=O)c1ccc2c(C(CC(F)(F)F)c3cccs3)c(-c3ccccc3)[nH]c2c1 (racemic),12.2,51.2,Activity (Cannabinoid receptor 1 [11]): > 50%; EC50 (Cannabinoid receptor 1 [3]): 0.158 µM; Emax (Cannabinoid receptor 1 [9]): 121%; EC50 (Cannabinoid receptor 1 [4]): 0.741 µM
,Cc1ccc2c(C(c3cccs3)C(C#N)C#N)c(-c3ccccc3)[nH]c2c1 (racemic),4.9,31.2,Activity (Cannabinoid receptor 1 [12]): > 50%
,O=C(O)CC(c1ccccc1)c1c(-c2ccccc2)[nH]c2ccccc12 (racemic),,62.7,
,O=[N+]([O-])CC(c1cccs1)c1c(-c2ccccc2)[nH]c2cc(C(F)(F)F)ccc12 (racemic),15.6,30.7,EC50 (Cannabinoid receptor 1 [3]): 0.284 µM; EC50 (Cannabinoid receptor 1 [4]): 0.974 µM
,N#CCC(c1ccccc1)c1c(-c2ccccc2)[nH]c2cc(Cl)ccc12 (racemic),22.5,43.2,EC50 (Cannabinoid receptor 1 [3]): 1.11 µM; EC50 (Cannabinoid receptor 1 [4]): 2.35 µM
< 50,Cc1ccc2c(C(C[N+](=O)[O-])c3cccs3)c(-c3ccc(Cl)cc3)[nH]c2c1 (racemic),9.8,24.2,
,O=[N+]([O-])CC(c1cccs1)c1c(-c2ccccc2)[nH]c2cc(Cl)ccc12 (racemic),13.8,32.7,EC50 (Cannabinoid receptor 1 [3]): 0.462 µM; Activity (Cannabinoid receptor 1 [8]): > 50%; EC50 (Cannabinoid receptor 1 [4]): 1.53 µM
30 to 50,OC(C(c1ccccc1)c1c(-c2ccccc2)[nH]c2ccccc12)C(F)(F)F (racemic),18.2,39.4,
,FC(F)(F)CC(c1cccs1)c1c(-c2ccccc2)[nH]c2cc(C(F)(F)F)ccc12 (racemic),36.7,49.7,EC50 (Cannabinoid receptor 1 [3]): 0.322 µM; Activity (Cannabinoid receptor 1 [8]): > 50%; Emax (Cannabinoid receptor 1 [9]): 203%; EC50 (Cannabinoid receptor 1 [4]): 0.801 µM
< 50,CC(=O)Nc1ccc2c(C(CC(F)(F)F)c3cccs3)c(-c3ccccc3)[nH]c2c1 (racemic),,,
< 50,CC(=O)c1ccc(-c2[nH]c3cc(Cl)ccc3c2C(C[N+](=O)[O-])c2cccs2)cc1 (racemic),,,
< 50,CN(C)c1ccc(-c2[nH]c3cc(Cl)ccc3c2C(C[N+](=O)[O-])c2cccs2)cc1 (racemic),,,
< 50,COC(=O)c1ccc(-c2[nH]c3cc(Cl)ccc3c2C(C[N+](=O)[O-])c2cccs2)cc1 (racemic),,,
,COC(=O)c1ccc2c(C(CC(F)(F)F)c3cccs3)c(-c3ccccc3)[nH]c2c1 (racemic),,,Activity (Cannabinoid receptor 1 [11]): > 50%; Emax (Cannabinoid receptor 1 [9]): 88%
< 50,COc1ccc(-c2[nH]c3cc(Cl)ccc3c2C(C[N+](=O)[O-])c2cccs2)cc1 (racemic),,,
< 50,COc1cccc(-c2[nH]c3cc(Cl)ccc3c2C(C[N+](=O)[O-])c2cccs2)c1 (racemic),,,
< 50,CS(=O)(=O)Nc1ccc2c(C(CC(F)(F)F)c3cccs3)c(-c3ccccc3)[nH]c2c1 (racemic),,,
< 50,CS(=O)(=O)c1ccc(-c2[nH]c3cc(Cl)ccc3c2C(C[N+](=O)[O-])c2cccs2)cc1 (racemic),,,
< 50,Cc1ccc2[nH]c(-c3ccccc3)c(C(CC(F)(F)F)c3ccccc3)c2c1 (racemic),,,
< 50,Cc1ccc2[nH]c(-c3ccccc3)c(C(CC(F)(F)F)c3cccs3)c2c1 (racemic),,,
,Cc1ccc2[nH]c(-c3ccccc3)c(C(C[N+](=O)[O-])c3cccs3)c2c1 (racemic),,,Activity (Cannabinoid receptor 1 [12]): > 50%
,Cc1ccc2c(C(CC#N)c3ccccc3)c(-c3ccccc3)[nH]c2c1 (racemic),,,Activity (Cannabinoid receptor 1 [12]): > 50%
,Cc1ccc2c(C(CC(F)(F)F)c3ccco3)c(-c3ccccc3)[nH]c2c1 (racemic),,,Activity (Cannabinoid receptor 1 [12]): > 50%

SMILES,Activity (Cannabinoid receptor 1 [6]) [%],t1/2 [7] [min],t1/2 [10] [min],also measured
CC(C)CN(C(=O)C(F)(F)F)c1c(-c2ccccc2)[nH]c2ccccc12,50,,,
O=C(N(CC1CC1)c1c(-c2ccccc2)[nH]c2ccccc12)C(F)(F)F,50,,,
N#Cc1ccc2[nH]c(C3CCCCC3)c(C(C[N+](=O)[O-])c3cccs3)c2c1 (racemic),< 50,3.8,21.4,
N#CC(C#N)C(c1ccccc1)c1c(-c2ccccc2)[nH]c2cc(Cl)ccc12 (racemic),< 50,13.5,29.6,
N#Cc1ccc2[nH]c(-c3ccccc3)c(C(C[N+](=O)[O-])c3cccs3)c2c1 (racemic),< 50,8.2,49.4,
